From the supplement of paper PMC10307832

Columns and labels:
Assay in all cases: relative viability (nuclei count vs DMSO), 5 days (fraction); higher = more cells survive
[1] = compound: O=S(=O)(c1ccccc1)N(CC(F)(F)F)c1ccc(C(O)(C(F)(F)F)C(F)(F)F)cc1 + C[C@]1(O)C[C@@H](c2nc(-c3ccc4ccc(-c5ccccc5)nc4c3)c3c(N)nccn32)C1 [Linsitinib] (partner 1 µM)
Summary of the method: (§1)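 Lung cancer cell lines were seeded in 1536-well plates and dosed by pin tool the next day, with either a single drug or a fixed anchor-drug dose combined with five library-drug doses (not always all listed) spaced in √10 steps. Five days later, one step fixed the cells and stained their nuclei (final 0.05% Triton X-100, 1% formaldehyde, 1 ug/ml Hoechst), and nuclei were counted on 4× images. Relative viability is the nuclei count in treated wells divided by the count in vehicle wells, and each value is the median of duplicate plates.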

[2] = compound: C1=CC2=C(C=CC(=C2)C=C3C(=O)NC(=NCC4=CC=CS4)S3)N=C1 [RO-3306] + N=C(N)NC(=N)NCCc1ccccc1 [Phenformin] (partner 250 µM)
Summary of the method: as §1

[3] = compound: O=S(=O)(c1ccccc1)N(CC(F)(F)F)c1ccc(C(O)(C(F)(F)F)C(F)(F)F)cc1 + O=C(c1cc(Cc2n[nH]c(=O)c3ccccc23)ccc1F)N1CCN(C(=O)C2CC2)CC1 [Olaparib] (partner 8 µM)
Summary of the method: as §1

[4] = compound: O=S(=O)(c1ccccc1)N(CC(F)(F)F)c1ccc(C(O)(C(F)(F)F)C(F)(F)F)cc1 + CC(=O)Nc1cccc(-n2c(=O)n(C3CC3)c(=O)c3c(Nc4ccc(I)cc4F)n(C)c(=O)c(C)c32)c1 [Trametinib] (partner 0.02 µM)
Summary of the method: as §1

[5] = compound: C1=CC2=C(C=CC(=C2)C=C3C(=O)NC(=NCC4=CC=CS4)S3)N=C1 [RO-3306] + C[C@]1(O)C[C@@H](c2nc(-c3ccc4ccc(-c5ccccc5)nc4c3)c3c(N)nccn32)C1 [Linsitinib] (partner 1 µM)
Summary of the method: as §1

NCI-H3122 was tested. Which relative viability ([1]; first compound 0.8 µM) did it give?
Its relative viability is 0.988.

What about the relative viability ([1]; first compound 2.53 µM) of the same cell line?
The relative viability was 0.894.

And the relative viability ([1]; first compound 8 µM)?
The relative viability was 1.11.

And the relative viability ([2]; first compound 0.01 µM)?
Its relative viability is 0.419.

What about the relative viability ([2]; first compound 0.03162 µM) of the same cell line?
Its relative viability is 0.612.

And the relative viability ([2]; first compound 0.1 µM)?
The relative viability was 0.397.

And the relative viability ([2]; first compound 0.3162 µM)?
The relative viability was 0.391.

And the relative viability ([2]; first compound 1 µM)?
The relative viability was 0.665.

What about the relative viability ([3]; first compound 0.8 µM) of the same cell line?
Its relative viability is 0.678.

What about the relative viability ([3]; first compound 2.53 µM) of the same cell line?
Its relative viability is 0.599.

And the relative viability ([3]; first compound 8 µM)?
Its relative viability is 0.654.

And the relative viability ([4]; first compound 0.8 µM)?
Its relative viability is 0.166.

And the relative viability ([4]; first compound 2.53 µM)?
Its relative viability is 0.143.

And the relative viability ([4]; first compound 8 µM)?
Its relative viability is 0.221.

And the relative viability ([5]; first compound 0.01 µM)?
Its relative viability is 1.1.

What about the relative viability ([5]; first compound 0.03162 µM) of the same cell line?
Its relative viability is 0.995.

And the relative viability ([5]; first compound 0.1 µM)?
Its relative viability is 1.02.

And the relative viability ([5]; first compound 0.3162 µM)?
The relative viability was 0.981.

What about the relative viability ([5]; first compound 1 µM) of the same cell line?
Its relative viability is 1.03.

Which results are given for PC-3 [JPC-3]?
relative viability ([1]; first compound 0.8 µM): 0.984; relative viability ([1]; first compound 2.53 µM): 0.887; relative viability ([1]; first compound 8 µM): 0.899; relative viability ([2]; first compound 0.01 µM): 0.481; relative viability ([2]; first compound 0.03162 µM): 0.517; relative viability ([2]; first compound 0.1 µM): 0.467; relative viability ([2]; first compound 0.3162 µM): 0.473; relative viability ([2]; first compound 1 µM): 0.433; relative viability ([3]; first compound 2.53 µM): 1.09; relative viability ([3]; first compound 8 µM): 1.1; relative viability ([4]; first compound 2.53 µM): 0.678; relative viability ([4]; first compound 8 µM): 0.678; relative viability ([5]; first compound 0.01 µM): 0.947; relative viability ([5]; first compound 0.03162 µM): 0.968; relative viability ([5]; first compound 0.1 µM): 0.996; relative viability ([5]; first compound 0.3162 µM): 0.963; relative viability ([5]; first compound 1 µM): 0.971

PC-14 was tested. Which relative viability ([1]; first compound 0.8 µM) did it give?
The relative viability was 1.23.

And the relative viability ([1]; first compound 2.53 µM)?
Its relative viability is 1.07.

And the relative viability ([1]; first compound 8 µM)?
Its relative viability is 0.888.

What about the relative viability ([2]; first compound 0.01 µM) of the same cell line?
The relative viability was 0.616.

And the relative viability ([2]; first compound 0.03162 µM)?
Its relative viability is 0.504.

And the relative viability ([2]; first compound 0.1 µM)?
The relative viability was 0.503.

What about the relative viability ([2]; first compound 0.3162 µM) of the same cell line?
Its relative viability is 0.595.

And the relative viability ([2]; first compound 1 µM)?
The relative viability was 0.499.

What about the relative viability ([3]; first compound 0.8 µM) of the same cell line?
Its relative viability is 0.201.

What about the relative viability ([3]; first compound 2.53 µM) of the same cell line?
The relative viability was 0.198.

What about the relative viability ([3]; first compound 8 µM) of the same cell line?
Its relative viability is 0.204.

What about the relative viability ([4]; first compound 0.8 µM) of the same cell line?
Its relative viability is 0.705.

What about the relative viability ([4]; first compound 2.53 µM) of the same cell line?
Its relative viability is 0.554.

And the relative viability ([4]; first compound 8 µM)?
The relative viability was 0.477.

And the relative viability ([5]; first compound 0.01 µM)?
Its relative viability is 0.989.

And the relative viability ([5]; first compound 0.03162 µM)?
The relative viability was 0.773.

What about the relative viability ([5]; first compound 0.1 µM) of the same cell line?
Its relative viability is 0.969.

And the relative viability ([5]; first compound 0.3162 µM)?
Its relative viability is 1.02.

What about the relative viability ([5]; first compound 1 µM) of the same cell line?
Its relative viability is 0.991.

Which results are given for RERF-LC-KJ?
relative viability ([1]; first compound 0.8 µM): 0.901; relative viability ([1]; first compound 2.53 µM): 0.779; relative viability ([1]; first compound 8 µM): 0.801; relative viability ([2]; first compound 0.01 µM): 0.428; relative viability ([2]; first compound 0.03162 µM): 0.445; relative viability ([2]; first compound 0.1 µM): 0.416; relative viability ([2]; first compound 0.3162 µM): 0.445; relative viability ([2]; first compound 1 µM): 0.407; relative viability ([3]; first compound 0.8 µM): 0.853; relative viability ([3]; first compound 2.53 µM): 0.893; relative viability ([3]; first compound 8 µM): 0.88; relative viability ([4]; first compound 0.8 µM): 0.812; relative viability ([4]; first compound 2.53 µM): 0.721; relative viability ([4]; first compound 8 µM): 0.663; relative viability ([5]; first compound 0.01 µM): 0.956; relative viability ([5]; first compound 0.03162 µM): 0.831; relative viability ([5]; first compound 0.1 µM): 0.902; relative viability ([5]; first compound 0.3162 µM): 0.974; relative viability ([5]; first compound 1 µM): 1

Which results are given for SK-LU-1?
relative viability ([1]; first compound 0.8 µM): 1.09; relative viability ([1]; first compound 2.53 µM): 0.97; relative viability ([1]; first compound 8 µM): 0.881; relative viability ([2]; first compound 0.01 µM): 0.461; relative viability ([2]; first compound 0.03162 µM): 0.426; relative viability ([2]; first compound 0.1 µM): 0.503; relative viability ([2]; first compound 0.3162 µM): 0.484; relative viability ([2]; first compound 1 µM): 0.453; relative viability ([3]; first compound 0.8 µM): 0.446; relative viability ([3]; first compound 2.53 µM): 0.472; relative viability ([3]; first compound 8 µM): 0.433; relative viability ([4]; first compound 0.8 µM): 0.466; relative viability ([4]; first compound 2.53 µM): 0.537; relative viability ([4]; first compound 8 µM): 0.491; relative viability ([5]; first compound 0.01 µM): 1.25; relative viability ([5]; first compound 0.03162 µM): 1.08; relative viability ([5]; first compound 0.1 µM): 1.02; relative viability ([5]; first compound 0.3162 µM): 1.19; relative viability ([5]; first compound 1 µM): 0.957

SK-MES-1 was tested. Which relative viability ([1]; first compound 0.8 µM) did it give?
Its relative viability is 1.15.

And the relative viability ([1]; first compound 2.53 µM)?
The relative viability was 1.17.

What about the relative viability ([1]; first compound 8 µM) of the same cell line?
Its relative viability is 0.972.

What about the relative viability ([2]; first compound 0.01 µM) of the same cell line?
The relative viability was 0.73.

And the relative viability ([2]; first compound 0.03162 µM)?
The relative viability was 0.605.

And the relative viability ([2]; first compound 0.1 µM)?
Its relative viability is 0.711.

What about the relative viability ([2]; first compound 0.3162 µM) of the same cell line?
Its relative viability is 0.621.

What about the relative viability ([2]; first compound 1 µM) of the same cell line?
Its relative viability is 0.625.

And the relative viability ([3]; first compound 0.8 µM)?
Its relative viability is 0.743.

And the relative viability ([3]; first compound 2.53 µM)?
Its relative viability is 0.728.

And the relative viability ([3]; first compound 8 µM)?
Its relative viability is 0.579.

What about the relative viability ([4]; first compound 0.8 µM) of the same cell line?
Its relative viability is 0.546.

What about the relative viability ([4]; first compound 2.53 µM) of the same cell line?
Its relative viability is 0.573.

And the relative viability ([4]; first compound 8 µM)?
Its relative viability is 0.59.

And the relative viability ([5]; first compound 0.01 µM)?
Its relative viability is 1.14.

What about the relative viability ([5]; first compound 0.03162 µM) of the same cell line?
Its relative viability is 0.859.

What about the relative viability ([5]; first compound 0.1 µM) of the same cell line?
Its relative viability is 1.16.

What about the relative viability ([5]; first compound 0.3162 µM) of the same cell line?
The relative viability was 1.16.

What about the relative viability ([5]; first compound 1 µM) of the same cell line?
Its relative viability is 1.15.

Which relative viability ([1]; first compound 0.8 µM) does the source give for SW 1573 here?
Its relative viability is 0.829.

And the relative viability ([1]; first compound 2.53 µM)?
Its relative viability is 0.762.

What about the relative viability ([1]; first compound 8 µM) of the same cell line?
Its relative viability is 0.624.

And the relative viability ([2]; first compound 0.01 µM)?
The relative viability was 0.405.

And the relative viability ([2]; first compound 0.1 µM)?
Its relative viability is 0.363.

And the relative viability ([2]; first compound 0.3162 µM)?
Its relative viability is 0.341.

And the relative viability ([2]; first compound 1 µM)?
The relative viability was 0.351.

What about the relative viability ([3]; first compound 0.8 µM) of the same cell line?
Its relative viability is 0.527.

What about the relative viability ([3]; first compound 2.53 µM) of the same cell line?
The relative viability was 0.43.

And the relative viability ([3]; first compound 8 µM)?
The relative viability was 0.514.

What about the relative viability ([4]; first compound 0.8 µM) of the same cell line?
Its relative viability is 0.638.

And the relative viability ([4]; first compound 2.53 µM)?
Its relative viability is 0.537.

What about the relative viability ([4]; first compound 8 µM) of the same cell line?
The relative viability was 0.472.

What about the relative viability ([5]; first compound 0.01 µM) of the same cell line?
The relative viability was 0.869.

And the relative viability ([5]; first compound 0.03162 µM)?
Its relative viability is 0.721.

What about the relative viability ([5]; first compound 0.1 µM) of the same cell line?
Its relative viability is 0.805.

And the relative viability ([5]; first compound 0.3162 µM)?
The relative viability was 0.762.

What about the relative viability ([5]; first compound 1 µM) of the same cell line?
Its relative viability is 0.727.
